Results taken from patent publication US20240425456A1, “DEGRADER” (ASKA PHARMACEUTICAL CO., LTD., priority 2021, published 2024).

Experiments:
Type in all cases: cell-based
JAK1 = target: T1, JAK1 (Homo sapiens, UniProt P23458); experiment: Degradation-inducing effect on JAK in Jurkat cells (chemiluminescent Western blotting), JAK1; conditions: 1 μmol/L, 6 hours; for JAK protein ratio of Jurkat cells after treatment of each test compound: JAK1: corrected by GAPDH, DMSO as 100%
T1 construct: endogenous in cells; host or cells: Jurkat cells
T1 sequence (P23458 whole entry): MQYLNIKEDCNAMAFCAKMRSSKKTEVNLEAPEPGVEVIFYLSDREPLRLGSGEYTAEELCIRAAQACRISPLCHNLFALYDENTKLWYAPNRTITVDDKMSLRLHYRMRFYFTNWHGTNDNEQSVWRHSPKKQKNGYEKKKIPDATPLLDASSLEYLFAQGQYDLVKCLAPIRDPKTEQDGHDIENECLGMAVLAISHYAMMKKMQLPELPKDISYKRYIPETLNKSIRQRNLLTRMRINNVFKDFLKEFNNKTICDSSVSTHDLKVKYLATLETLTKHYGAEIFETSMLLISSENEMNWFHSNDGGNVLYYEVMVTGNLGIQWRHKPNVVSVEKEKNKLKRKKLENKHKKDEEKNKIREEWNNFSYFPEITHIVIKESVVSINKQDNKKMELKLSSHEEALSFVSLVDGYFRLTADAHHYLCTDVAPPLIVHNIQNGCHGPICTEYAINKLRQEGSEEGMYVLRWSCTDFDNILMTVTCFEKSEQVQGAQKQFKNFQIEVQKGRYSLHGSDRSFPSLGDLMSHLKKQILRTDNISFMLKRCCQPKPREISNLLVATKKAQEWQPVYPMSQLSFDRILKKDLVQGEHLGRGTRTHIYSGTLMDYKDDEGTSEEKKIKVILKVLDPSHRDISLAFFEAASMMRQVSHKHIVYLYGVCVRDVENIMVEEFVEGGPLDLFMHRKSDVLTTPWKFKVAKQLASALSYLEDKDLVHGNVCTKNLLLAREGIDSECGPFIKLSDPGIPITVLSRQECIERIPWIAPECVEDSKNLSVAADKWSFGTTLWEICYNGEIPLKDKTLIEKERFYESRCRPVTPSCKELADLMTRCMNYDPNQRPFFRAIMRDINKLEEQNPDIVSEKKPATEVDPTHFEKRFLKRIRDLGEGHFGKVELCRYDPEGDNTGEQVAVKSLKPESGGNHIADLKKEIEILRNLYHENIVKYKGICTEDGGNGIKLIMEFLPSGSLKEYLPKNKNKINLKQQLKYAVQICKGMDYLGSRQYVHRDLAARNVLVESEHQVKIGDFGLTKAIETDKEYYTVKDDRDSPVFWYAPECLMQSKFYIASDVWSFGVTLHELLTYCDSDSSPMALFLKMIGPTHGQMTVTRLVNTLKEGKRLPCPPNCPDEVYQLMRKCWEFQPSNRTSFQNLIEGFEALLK
Experimental: (§1) The degradation-inducing effect of the compound of the present invention on JAK family proteins was evaluated in vitro using Jurkat cells, of which cell line was derived from human leukemic T cells.
(§2) JAK1, JAK2, JAK3, and Tyk2-positive Jurkat cells were seeded at a density of 1×10^5 cells/mL on 10 cm diameter dishes and then cultured in RPMI 1640 medium (FUJIFILM Wako Pure Chemical: catalog number: 189-02025) containing 10% FBS (Thermo Fisher Scientific: catalog number: 10437-028) at 5% CO2 and 37° C. for 3 days. Then, each of the test compounds (compounds of Examples 1 to 11 and Comparative Examples 1 and 2) was added to the dish at a final concentration of 1 μmol/L, and the cells were cultured in the presence of the test compound for 6 hours. After that, the cell culture medium was collected in a 15 mL centrifuge tube (1000 rpm (240× g), room temperature, 5 min), followed by washing with PBS (1000 rpm (240× g), room temperature, 5 min). Then, the cells in the centrifuge tube were collected in a 1.5 mL tube (3000 rpm (860× g), 4° C., 5 min), lysed using RIPA buffer (25 mmol/L Tris-HCl (pH 7.4), 25 mmol/L NaCl, 0.5 mmol/L EGTA (pH 8.0), 0.1% SDS, 1% protease inhibitor), sonicated at ice temperature (cycles of [7.5 sec sonication, 5 sec off] for 5 min) and subjected to centrifugation (15000 rpm (21600× g), 4° C., 30 min). The thus-obtained supernatant was used as the protein solution. Using the BCA protein assay kit (Thermo Fisher Scientific: catalog number: 23225), the protein concentration of the protein solution of each test compound was measured according to the kit instructions, and then adjusted to 1.4 mg/mL with RIPA buffer. The thus-adjusted protein solutions were subjected to a fully automated Western blotting device (Simple Westerns Wes: proteinSimple) to detect the protein levels (JAK1, JAK2, JAK3, and Tyk2 as the target proteins, and GAPDH (Glyceraldehyde 3-phosphate dehydrogenase) as the internal standard protein) in the protein solutions by chemiluminescent Western blotting.
(§3) Furthermore, the luminescence levels of JAK1, JAK2, JAK3, and Tyk2 detected by chemiluminescent Western blotting were quantified numerically by using an analysis software (Compass software for Simple Western (version 4.0.0)) attached to the fully automated Western blotting device. The numerical values of the quantified luminescence levels were corrected by the protein levels of the internal standard protein, i.e., GAPDH, (target protein levels/GAPDH protein levels), and compared among the test compounds with dimethyl sulfoxide (DMSO) as 100%.

JAK2 = target: T2, JAK2 (Homo sapiens, UniProt O60674); experiment: Degradation-inducing effect on JAK in Jurkat cells (chemiluminescent Western blotting), JAK2; conditions: 1 μmol/L, 6 hours, corrected by GAPDH, DMSO as 100%
T2 construct: endogenous in cells; host or cells: Jurkat cells
T2 sequence (O60674 whole entry): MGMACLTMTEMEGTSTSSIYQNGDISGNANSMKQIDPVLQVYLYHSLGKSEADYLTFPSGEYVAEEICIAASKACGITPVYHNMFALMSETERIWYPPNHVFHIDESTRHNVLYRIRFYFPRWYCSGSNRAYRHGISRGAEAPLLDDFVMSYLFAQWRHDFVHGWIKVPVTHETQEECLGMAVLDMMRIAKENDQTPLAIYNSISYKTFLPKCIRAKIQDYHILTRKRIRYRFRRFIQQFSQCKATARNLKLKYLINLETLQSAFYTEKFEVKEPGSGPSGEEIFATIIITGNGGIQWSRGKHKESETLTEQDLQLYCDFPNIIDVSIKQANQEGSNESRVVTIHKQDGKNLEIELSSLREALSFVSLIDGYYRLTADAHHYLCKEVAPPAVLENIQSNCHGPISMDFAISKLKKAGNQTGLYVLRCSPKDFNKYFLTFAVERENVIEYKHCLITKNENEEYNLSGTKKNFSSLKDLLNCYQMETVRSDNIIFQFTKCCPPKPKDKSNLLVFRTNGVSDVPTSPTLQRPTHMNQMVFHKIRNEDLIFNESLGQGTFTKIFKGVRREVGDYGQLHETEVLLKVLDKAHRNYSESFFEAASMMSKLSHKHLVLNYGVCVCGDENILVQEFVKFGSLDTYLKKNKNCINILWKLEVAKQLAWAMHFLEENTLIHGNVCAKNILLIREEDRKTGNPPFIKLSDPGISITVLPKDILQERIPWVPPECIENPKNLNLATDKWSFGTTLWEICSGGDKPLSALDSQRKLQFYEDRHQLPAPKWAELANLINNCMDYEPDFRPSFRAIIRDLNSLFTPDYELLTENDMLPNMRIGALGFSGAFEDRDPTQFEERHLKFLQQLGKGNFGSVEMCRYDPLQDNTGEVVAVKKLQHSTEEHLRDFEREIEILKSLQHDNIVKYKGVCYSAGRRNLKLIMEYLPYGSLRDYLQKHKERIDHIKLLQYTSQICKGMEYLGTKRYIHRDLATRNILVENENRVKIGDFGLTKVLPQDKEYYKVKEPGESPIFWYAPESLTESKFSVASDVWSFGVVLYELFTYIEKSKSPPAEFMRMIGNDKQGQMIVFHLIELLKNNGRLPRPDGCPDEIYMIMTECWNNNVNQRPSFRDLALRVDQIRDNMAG
Experimental: as §1, §2, §3

Tyk2 = target: T3, Tyk2 (Homo sapiens, UniProt P29597); experiment: Degradation-inducing effect on JAK in Jurkat cells (chemiluminescent Western blotting), Tyk2; conditions: 1 μmol/L, 6 hours, corrected by GAPDH, DMSO as 100%
T3 construct: endogenous in cells; host or cells: Jurkat cells
T3 sequence (P29597 whole entry): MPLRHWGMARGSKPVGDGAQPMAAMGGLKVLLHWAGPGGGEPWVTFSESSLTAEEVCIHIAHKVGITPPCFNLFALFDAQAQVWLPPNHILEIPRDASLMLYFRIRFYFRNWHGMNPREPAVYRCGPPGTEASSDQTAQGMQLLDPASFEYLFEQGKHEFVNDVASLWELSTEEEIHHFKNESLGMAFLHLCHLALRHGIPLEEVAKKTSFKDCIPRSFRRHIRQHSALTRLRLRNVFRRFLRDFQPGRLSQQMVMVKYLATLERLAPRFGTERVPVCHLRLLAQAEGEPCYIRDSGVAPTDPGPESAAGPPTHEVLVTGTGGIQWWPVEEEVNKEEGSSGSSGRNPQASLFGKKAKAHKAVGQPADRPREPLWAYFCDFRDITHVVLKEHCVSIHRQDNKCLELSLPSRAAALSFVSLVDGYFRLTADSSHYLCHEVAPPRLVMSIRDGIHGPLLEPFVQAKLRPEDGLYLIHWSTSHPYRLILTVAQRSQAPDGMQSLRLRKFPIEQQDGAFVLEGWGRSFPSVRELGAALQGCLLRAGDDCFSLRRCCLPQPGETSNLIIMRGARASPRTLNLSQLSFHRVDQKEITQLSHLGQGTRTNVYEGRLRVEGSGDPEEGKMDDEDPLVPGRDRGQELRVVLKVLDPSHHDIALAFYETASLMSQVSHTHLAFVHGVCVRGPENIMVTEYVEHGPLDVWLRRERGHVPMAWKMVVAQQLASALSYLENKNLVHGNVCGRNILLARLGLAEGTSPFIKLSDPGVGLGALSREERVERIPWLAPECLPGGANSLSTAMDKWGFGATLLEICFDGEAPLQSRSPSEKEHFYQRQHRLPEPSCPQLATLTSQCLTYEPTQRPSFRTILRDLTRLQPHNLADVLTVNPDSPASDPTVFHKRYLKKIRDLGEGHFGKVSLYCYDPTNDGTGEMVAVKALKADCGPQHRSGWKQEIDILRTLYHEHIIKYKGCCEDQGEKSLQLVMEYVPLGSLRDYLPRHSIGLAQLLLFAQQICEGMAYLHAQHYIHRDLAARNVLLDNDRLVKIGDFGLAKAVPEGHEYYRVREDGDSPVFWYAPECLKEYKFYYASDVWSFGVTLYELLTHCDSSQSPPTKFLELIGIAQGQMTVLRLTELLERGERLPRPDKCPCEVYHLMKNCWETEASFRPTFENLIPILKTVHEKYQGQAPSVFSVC
Experimental: as §1, §2, §3

JAK3 = target: T4, JAK3 (Homo sapiens, UniProt P52333); experiment: Degradation-inducing effect on JAK in Jurkat cells (chemiluminescent Western blotting), JAK3; conditions: 1 μmol/L, 6 hours, corrected by GAPDH, DMSO as 100%, read-out: JAK protein ratio of Jurkat cells after treatment of each test compound: JAK3
T4 construct: endogenous in cells; host or cells: Jurkat cells
T4 sequence (P52333 1-1124): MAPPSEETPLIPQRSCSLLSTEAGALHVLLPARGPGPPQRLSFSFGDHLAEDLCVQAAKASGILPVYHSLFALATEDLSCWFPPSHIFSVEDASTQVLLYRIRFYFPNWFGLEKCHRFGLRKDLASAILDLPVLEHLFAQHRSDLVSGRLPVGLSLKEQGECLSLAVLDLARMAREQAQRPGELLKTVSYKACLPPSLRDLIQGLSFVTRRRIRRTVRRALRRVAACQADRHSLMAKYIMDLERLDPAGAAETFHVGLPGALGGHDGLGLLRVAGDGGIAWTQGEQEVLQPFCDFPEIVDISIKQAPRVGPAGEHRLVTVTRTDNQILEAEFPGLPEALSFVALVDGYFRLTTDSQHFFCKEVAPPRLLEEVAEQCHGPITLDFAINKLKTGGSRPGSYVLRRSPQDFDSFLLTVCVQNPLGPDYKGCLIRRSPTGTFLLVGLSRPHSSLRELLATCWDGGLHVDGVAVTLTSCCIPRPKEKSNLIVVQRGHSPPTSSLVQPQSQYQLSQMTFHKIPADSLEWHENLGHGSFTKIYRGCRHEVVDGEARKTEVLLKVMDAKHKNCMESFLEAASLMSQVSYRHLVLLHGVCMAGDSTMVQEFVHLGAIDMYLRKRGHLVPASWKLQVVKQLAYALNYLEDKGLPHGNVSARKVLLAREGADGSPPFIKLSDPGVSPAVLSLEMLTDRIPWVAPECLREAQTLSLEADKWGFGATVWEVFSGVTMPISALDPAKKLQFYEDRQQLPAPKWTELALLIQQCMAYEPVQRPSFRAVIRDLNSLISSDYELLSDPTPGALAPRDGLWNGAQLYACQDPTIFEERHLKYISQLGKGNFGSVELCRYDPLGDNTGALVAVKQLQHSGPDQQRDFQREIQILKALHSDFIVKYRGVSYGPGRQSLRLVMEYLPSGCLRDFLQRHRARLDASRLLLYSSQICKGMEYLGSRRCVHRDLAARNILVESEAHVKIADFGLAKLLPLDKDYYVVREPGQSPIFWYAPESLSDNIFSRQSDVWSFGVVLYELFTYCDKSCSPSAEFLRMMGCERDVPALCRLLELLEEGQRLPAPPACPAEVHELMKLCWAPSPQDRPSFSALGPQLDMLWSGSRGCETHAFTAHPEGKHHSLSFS
Experimental: as §1, §2, §3

protein level of JAK1 (in words) (JAK1)	JAK protein ratio of Jurkat cells after treatment of each test compound: JAK1 (JAK1)	JAK protein ratio of Jurkat cells after treatment of each test compound: JAK2 (JAK2)	JAK protein ratio of Jurkat cells after treatment of each test compound: Tyk2 (Tyk2)	JAK3 protein level relative to DMSO at 1 µM (JAK3)	SMILES
reduced	57.6%	115.9%	15.4%	99.3%	CNC(=O)c1cccc(Nc2cc(Nc3ccc(C(=O)NCCCCCCCCCC(=O)N[C@H](C(=O)N4C[C@H](O)C[C@H]4C(=O)NCc4ccc(-c5scnc5C)cc4)C(C)(C)C)cn3)ncc2C(N)=O)c1OC [Example 9, 6-((5-Carbamoyl-4-((2-methoxy-3-(methylcarbamoyl)phenyl)amino)pyridin-2-yl)amino)-N-(10-(((S)-1-((2S,4R)-4-hydroxy-2-((4-(4-methylthiazol-5-yl)benzyl)carbamoyl)pyrrolidin-1-yl)-3,3-dimethyl-1-oxobutan-2-yl)amino)-10-oxodecyl) nicotinamide]
–	90.5%	114.1%	31.2%	111%	CNC(=O)c1cnc(Nc2ccc(C(=O)NCCCCCCCCCC(=O)N[C@H](C(=O)N3C[C@H](O)C[C@H]3C(=O)NCc3ccc(-c4scnc4C)cc3)C(C)(C)C)cn2)cc1Nc1cccc(-c2ncn(C)n2)c1OC [Example 10, 6-((5-((10-(((S)-1-((2S,4R)-4-hydroxy-2-((4-(4-methylthiazol-5-yl)benzyl)carbamoyl)pyrrolidin-1-yl)-3,3-dimethyl-1-oxobutan-2-yl)amino)-10-oxodecyl)carbamoyl)pyridin-2-yl)amino)-4-((2-methoxy-3-(1-methyl-^1H-1,2,4-triazol-3-yl)phenyl)amino)-N-methylnicotinamide]
–	114.4%	132.2%	55.1%	103%	CNC(=O)c1cnc(Nc2ccc(C(=O)NCCCCCCCCCC(=O)N[C@H](C(=O)N3C[C@H](O)C[C@H]3C(=O)NCc3ccc(-c4scnc4C)cc3)C(C)(C)C)cn2)cc1Nc1cccc(C(=O)NCCO)c1OC [Example 11, 6-((5-((10-(((S)-1-((2S,4R)-4-hydroxy-2-((4-(4-methylthiazol-5-yl)benzyl)carbamoyl)pyrrolidin-1-yl)-3,3-dimethyl-1-oxobutan-2-yl)amino)-10-oxodecyl)carbamoyl)pyridin-2-yl)amino)-4-((3-((2-hydroxyethyl)carbamoyl)-2-methoxyphenyl)amino)-N-methylnicotinamide]
